# Laboratory results reported in paper PMC7093131, “Structural and Biomolecular Analyses of Borrelia burgdorferi BmpD Reveal a Substrate-Binding Protein of an ABC-Type Nucleoside Transporter Family” (Infection and Immunity, 2020).
# Target: T1, BmpD (rBmpD; LF-rBmpD) (Borreliella burgdorferi, UniProt P0CL55)
# T1 construct: signal peptide (residues 1 to 17) removed; N-terminal hexahistidine tag (pET-30a(+)) kept; E. coli BL21(DE3)pLys; 39 kDa; monomer; printed end 323 may be in mature count
# T1 sequence (P0CL55 18-341): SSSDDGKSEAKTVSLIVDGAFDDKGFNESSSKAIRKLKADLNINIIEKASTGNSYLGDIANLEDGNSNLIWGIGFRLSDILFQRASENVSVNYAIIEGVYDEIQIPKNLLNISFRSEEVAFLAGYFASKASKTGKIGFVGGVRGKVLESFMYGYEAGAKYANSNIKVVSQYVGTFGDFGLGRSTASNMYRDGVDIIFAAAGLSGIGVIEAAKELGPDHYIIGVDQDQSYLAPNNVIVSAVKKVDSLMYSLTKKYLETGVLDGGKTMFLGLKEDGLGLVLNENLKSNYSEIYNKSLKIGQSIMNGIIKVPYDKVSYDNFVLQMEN
# Test: X-ray crystal structure ([…] A) with LC-MS of co-purified ligand; label-free MST on refolded LF-rBmpD
# Format: binding
# Conditions: endogenously bound from E. coli expression, crystals at pH 8.0; MST: 500 nM refolded ligand-free protein, single experiment, no Kd displayed
compound,measurement,value
Nc1ncnc2c1ncn2[C@@H]1O[C@H](CO)[C@@H](O)[C@H]1O [adenosine],X-ray crystal structure (1.43 A) with LC-MS of co-purified ligand; label-free MS,"the ligand was a purine nucleoside, which was confirmed to be an adenosine"
